Measured values from patent US8080660B2, “Metal complex glycogen synthase kinase 3 inhibitors” (The Trustees Of The University Of Pennsylvania, priority 2004, dated 2011).
pIC50: −log10 of the molar value.

Biological target: T1, GSK-3α (Homo sapiens, UniProt P49840)
T1 construct: purchased Upstate Biotechnology USA
Assay: GSK-3α kinase inhibition assay ([γ-32P]ATP phosphorylation of substrate)
Assay type: biochemical
Conditions: 20 μM ATP
Protocol: Protein kinases and substrates were purchased from Upstate Biotechnology USA, except for poly(Glu-Tyr 4:1) which was obtained from Sigma-Aldrich.
After 15 mins, the reaction was initiated by adding ATP to a final concentration of 20 μM, including approximately 0.04 μCi/μl [γ-^32P]ATP. Reactions were performed in a total volume of 25 μl. After 30 min, the reaction was terminated by spotting 17.5 μl on a circular P81 phosphocellulose paper (diameter 2.1 cm, Whatman) followed by washing four times (five minutes each wash) with 0.75% phosphoric acid and once with acetone. The dried P81 papers were transferred to a scintillation vial and 5 ml of scintillation cocktail were added and the counts per minute (CPM) determined with a Beckmann 6000 scintillation counter.

T1 sequence (P49840 whole entry): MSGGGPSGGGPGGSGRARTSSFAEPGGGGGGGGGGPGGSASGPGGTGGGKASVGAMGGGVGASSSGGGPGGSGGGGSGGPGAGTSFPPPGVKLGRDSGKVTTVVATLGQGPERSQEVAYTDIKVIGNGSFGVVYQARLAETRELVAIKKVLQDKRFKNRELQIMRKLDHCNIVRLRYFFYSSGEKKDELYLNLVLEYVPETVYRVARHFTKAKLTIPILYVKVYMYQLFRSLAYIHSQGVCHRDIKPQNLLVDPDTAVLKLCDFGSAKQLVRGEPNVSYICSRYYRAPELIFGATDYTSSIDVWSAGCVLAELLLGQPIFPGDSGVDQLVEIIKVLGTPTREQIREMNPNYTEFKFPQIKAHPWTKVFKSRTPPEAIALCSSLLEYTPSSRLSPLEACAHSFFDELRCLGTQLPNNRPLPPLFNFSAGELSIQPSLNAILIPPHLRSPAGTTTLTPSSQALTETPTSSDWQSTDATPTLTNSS

O=C1NC(=O)c2c1c1cccnc1c1[nH]c3ccccc3c21 [Compound 4]
pIC50: 4.30
